Measured values: ChEMBL document CHEMBL3046774, “Synthesis and insect antifeedant activity of precocene derivatives with lactone moiety” (2005)
Calls of active or inactive are those of the source. The calls are words filed in the database; no cut-off is given here.

Assays:
Tribolium confusum [1] = assay: Antifeeding activity against Tribolium confusum (confused flour beetle) larvaes in compound treated wheat wafer disk assessed as total coefficient of deterrence by feeding deterrent activity test; type: functional
Tribolium confusum [2] = assay: Antifeeding activity against Tribolium confusum (confused flour beetle) adults in compound treated wheat wafer disk assessed as total coefficient of deterrence by feeding deterrent activity test; type: functional
[3] = tested on: Leptinotarsa decemlineata; assay: Antifeeding activity against Leptinotarsa decemlineata adults in compound treated wheat wafer disk assessed as absolute coefficient of deterrence by feeding deterrent activity test; type: functional
Trogoderma granarium [4] = assay: Antifeeding activity against Trogoderma granarium (khapra beetle ) larvaes in compound treated wheat wafer disk assessed as absolute coefficient of deterrence by feeding deterrent activity test; type: functional
Tribolium confusum [5] = assay: Antifeeding activity against Tribolium confusum (confused flour beetle) larvaes in compound treated wheat wafer disk assessed as relative coefficient of deterrence by feeding deterrent activity test; type: functional
Trogoderma granarium [6] = assay: Antifeeding activity against Trogoderma granarium (khapra beetle) larvaes in compound treated wheat wafer disk assessed as total coefficient of deterrence by feeding deterrent activity test; type: functional
Sitophilus granarius [7] = assay: Antifeeding activity against Sitophilus granarius (granary weevil) adults in compound treated wheat wafer disk assessed as absolute coefficient of deterrence by feeding deterrent activity test; type: functional
[8] = tested on: Leptinotarsa decemlineata; assay: Antifeeding activity against Leptinotarsa decemlineata larvaes in compound treated wheat wafer disk assessed as relative coefficient of deterrence by feeding deterrent activity test; type: functional
Aphididae = assay: Antifeeding activity against Aphididae (aphids) in compound treated chinese cabbage leaves assessed as settled aphids measured up to 24 hr; type: functional, organism-based
Tribolium confusum [9] = assay: Antifeeding activity against Tribolium confusum (confused flour beetle) larvaes in compound treated wheat wafer disk assessed as absolute coefficient of deterrence by feeding deterrent activity test; type: functional
[10] = tested on: Leptinotarsa decemlineata; assay: Antifeeding activity against Leptinotarsa decemlineata larvaes in compound treated wheat wafer disk assessed as absolute coefficient of deterrence by feeding deterrent activity test; type: functional
[11] = tested on: Leptinotarsa decemlineata; assay: Antifeeding activity against Leptinotarsa decemlineata larvaes in compound treated wheat wafer disk assessed as total coefficient of deterrence by feeding deterrent activity test; type: functional
Sitophilus granarius [12] = assay: Antifeeding activity against Sitophilus granarius (granary weevil) adults in compound treated wheat wafer disk assessed as relative coefficient of deterrence by feeding deterrent activity test; type: functional
[13] = tested on: Leptinotarsa decemlineata; assay: Antifeeding activity against Leptinotarsa decemlineata adults in compound treated wheat wafer disk assessed as relative coefficient of deterrence by feeding deterrent activity test; type: functional
Tribolium confusum [14] = assay: Antifeeding activity against Tribolium confusum (confused flour beetle) adults in compound treated wheat wafer disk assessed as absolute coefficient of deterrence by feeding deterrent activity test; type: functional
Sitophilus granarius [15] = assay: Antifeeding activity against Sitophilus granarius (granary weevil) adults in compound treated wheat wafer disk assessed as total coefficient of deterrence by feeding deterrent activity test; type: functional
Trogoderma granarium [16] = assay: Antifeeding activity against Trogoderma granarium (khapra beetle) larvaes in compound treated wheat wafer disk assessed as relative coefficient of deterrence by feeding deterrent activity test; type: functional
Tribolium confusum [17] = assay: Antifeeding activity against Tribolium confusum (confused flour beetle) adults in compound treated wheat wafer disk assessed as relative coefficient of deterrence by feeding deterrent activity test; type: functional
[18] = tested on: Leptinotarsa decemlineata; assay: Antifeeding activity against Leptinotarsa decemlineata adults in compound treated wheat wafer disk assessed as total coefficient of deterrence by feeding deterrent activity test; type: functional

SMILES | FDI (Tribolium confusum [1]) | FDI (Tribolium confusum [2]) | FDI [3] | FDI (Trogoderma granarium [4]) | FDI (Tribolium confusum [5]) | FDI (Trogoderma granarium [6]) | FDI (Sitophilus granarius [7]) | FDI [8] | Activity (Aphididae) | FDI (Tribolium confusum [9]) | FDI [10] | FDI [11] | FDI (Sitophilus granarius [12]) | FDI [13] | FDI (Tribolium confusum [14]) | FDI (Sitophilus granarius [15]) | FDI (Trogoderma granarium [16]) | FDI (Tribolium confusum [17]) | FDI [18]
COc1ccc2c(c1)OC(C)(C)C1=C2OC(=O)C1 | 50.6 | 114.1 | 27.6 | 34.5 | 60.3 | 107.6 | 19.7 | 55 | Active | -6.7 | 21.7 | 76.7 | 94.4 | 49.2 | 19.7 | 114.1 | 73.1 | 94.4 | 76.8
COc1cc2c(cc1OC)C1=C(CC(=O)O1)C(C)(C)O2 | 149.7 | 105.8 | 19.7 | 31.2 | 90.7 | 116.2 | 14.2 | 62.5 | inactive | 59 | 32.7 | 95.2 | 91.6 | 29.9 | 14.2 | 105.8 | 85 | 91.6 | 49.6
COc1ccc2c(c1)OC(C)(C)C(CC(=O)O)=C2 | 80.2 | 97.5 | 23.2 | 22 | 86.4 | 108 | 1.8 | 63.6 | inactive | -6.2 | 35.2 | 98.8 | 95.7 | 70.9 | 1.8 | 97.5 | 86 | 95.7 | 94.1
COc1cc2c(cc1OC)OC(C)(C)C(CC(=O)O)=C2 | 113.6 | 103.9 | 34.4 | 11.9 | 73.1 | 97.4 | 15 | 79.1 | inactive | 40.5 | 17.2 | 96.3 | 88.9 | 63.7 | 15 | 103.9 | 85.5 | 88.9 | 98.1
COc1cc2c(cc1OC)[C@@H]1OC(=O)C[C@]1(I)C(C)(C)O2 (racemic) | 147.8 | 93.4 | 87.1 | 39.6 | 93.6 | 120.1 | 3.9 | 90.6 | inactive | 54.2 | 41.4 | 132 | 89.5 | 89.1 | 3.9 | 93.4 | 80.5 | 89.5 | 176.2
COc1ccc2c(c1)OC(C)(C)[C@@]1(I)CC(=O)O[C@@H]21 (racemic) | 94.2 | 114.5 | 61.6 | 31.6 | 77.5 | 111.4 | 21.1 | 95.8 | inactive | 16.7 | 38.3 | 134.1 | 93.4 | 81.4 | 21.1 | 114.5 | 79.8 | 93.4 | 143
COc1cc2c(cc1OC)OC(C)(C)C=C2 [PROCOCENE II] | 165.7 | 194.2 | 44.2 | 98.6 | 97.1 | 198.6 | 100 | 91.2 | Active | 68.6 | 32.9 | 124.1 | 94.2 | 71.8 | 100 | 194.2 | 100 | 94.2 | 116
COc1ccc2c(c1)OC(C)(C)C=C2 [PROCOCENE I] | 119.2 | 139 | 41.9 | 41.8 | 64.1 | 80.1 | 55.2 | 86.8 | Active | 55.1 | 77.8 | 164.6 | 83.8 | 73.8 | 55.2 | 139 | 38.3 | 83.8 | 115.7
